Results on eight compounds are retold here after patent US10197556B2, “Methods to detect non-genotoxic carcinogens using flatworms” (Universiteit Gent, priority 2015, dated 2019).

Where a name gives a salt, the structure may show the parent alone. Read-outs that look alike come from different tables or passages of the source.

One data set concerns Macrostomum lignano. Particulars: for Overall prediction: final prediction call over three experiments; for prediction by the assay in the experiments: outcome over the experiments. As to the method:
Cultures of Macrostomum lignano (37) were grown in artificial seawater (ASW) enriched with f/2-medium (40) and fed ad libitum with the diatom Nitzschia curvilineata (PAE culture collection; UGent on the World Wide Web at pae.ugent.be/collection.htm), as described in references 41 and 43.
One week before starting chemical exposure, a six-well plate filled with 4 ml f/2 medium (Novolab NV) was inoculated with diatoms to achieve an ad libitum food source during exposure. Starvation of the worms leads to a decrease in stem cell proliferation (as shown in Nimeth et al (29)), which would interfere with stem cell proliferation, the endpoint of the assay. Before the start of exposure, fifteen adult worms per condition were pipetted in each well, which was then emptied by pipetting without drying out the worms and refilled with f/2 medium (control), if required, F2+0.05% DMSO (vehicle control) and a concentration of the chemical.
The DMSO concentration in the vehicle control never exceeded 0.05%. This represented the maximum DMSO percentage in the chemical's highest test concentration.
To select the appropriate compound concentration, first, a broad concentration range-finding experiment (spacing factor 10; two weeks exposure) was carried out. Based on this pilot range finding, a fine-tuned range finding (spacing factor less than or equal to 2; for D-Mannitol factor 5) was chosen to conduct the assay. The maximum concentration tested depended on the test compound solubility and the requirement of a survival of twelve out of fifteen worms at the end of exposure.
For all chemicals investigated in this disclosure, the medium was refreshed weekly.
After a preliminary test (CP as reference) on different exposure times ranging from two days to six weeks, the worms were exposed for a period of two weeks, after which they were subjected to phosphorylated histone H3 immunostaining (PH3) to quantify mitosis.
To quantify mitotic cells in whole mount specimens, the mitotic marker anti-PH3 was used. The staining was performed by first relaxing the animals in a 1:1 mixture of MgCl2.6H2O (7.14%) and ASW (5 minutes), then in MgCl2.6H2O (7.14%) (undiluted, 5 minutes), followed by fixation in paraformaldehyde (PFA, 4% in PBS, 60 minutes). Animals were then rinsed with phosphate-buffered saline (PBS, 3×5 minutes) and blocked in bovine serum albumin, containing TRITON® (BSA-T, 0.1% TRITON® X-100, 60 minutes). Subsequently, animals were incubated in primary rabbit-anti-phos-H3 (1:300 in BSA-T, overnight, 4° C., Upstate Biotechnology), rinsed in PBS (3×5 minutes) and incubated in secondary TRITC-conjugated swine-anti-rabbit (1:150 in BSA-T, 1 hour, DAKO). Finally, animals were washed with PBS (3×5 minutes) and slides were mounted using Vectashield (Vector Laboratories). Slides were analyzed using a Leica 2500P microscope equipped with epifluorescence, a 40× objective and a DFC360FX CCD camera.
All somatic PH3-positive cells were counted manually using the Image J cell counter plugin (44) (FIG. 1). Gonadal PH3+ cells were not included in the analysis because of 1) the high density of divisions in that region that can lead to overlapping signals and 2) the germ line representing a separate population of cells, differentially tolerant to exposure, which can result in quantification variability.
The cut-off value of the assay was determined based on density plots (R version 2.15.3; (33)) of the number of mitotic stem cells of all experiments for controls (sea water and DMSO), non-carcinogens, genotoxic carcinogens and non-genotoxic carcinogens. The cut-off value of 30 lays in the tail of the distribution corresponding to the 97.5 percentile or two standard deviations.
Concentrations resulting in the death of 20% of the worms (three out of fifteen) during exposure were considered cytotoxic and were not analyzed.

The next data set has as its system Schmidtea mediterranea. As to the method:
Asexual strains of the freshwater planarian Schmidtea mediterranea (38, 45) were maintained in culture medium, consisting of water, that was first deionized and then distilled, and to which the following nutrients were added: 1.6 mM NaCl, 1.0 mM CaCl2, 1.0 mM MgSO4, 0.1 mM MgCl2, 0.1 mM KCl and 1.2 mM NaHCO3. The animals were continuously kept in the dark at a room temperature of 20° C. and were fed once a week with veal liver.
Experiments were performed with regenerating animals (heads and tails) to accelerate initial responses to carcinogenic compounds, as this process of massive cell proliferation, migration and differentiation resembles the process of carcinogenesis, and, possibly differently affects the dynamics of stem cells toward genotoxic and non-genotoxic carcinogen exposures (16, 32, 39).
In each experimental condition, animals were cut transversally immediately before exposure to a genotoxic, non-genotoxic or non-carcinogen concentration, medium (control) or medium with DMSO (vehicle control). Exposures were performed in six-well plates (4 ml/well). To exclude intrinsic effects of DMSO on cell proliferation, the DMSO vehicle concentration never exceeded 0.05% and interaction effects between the test compound and DMSO were investigated using a two-way ANOVA (32). […] Animals were fed once a week with veal liver and starved for one week before stem cell proliferation measurements. Stem cell proliferation was measured after one day of regeneration (the mitotic minimum of regeneration), after three days (the mitotic maximum of regeneration), after one week (the end stage of regeneration) after two and six weeks (during homeostasis), as well as at the appearance of organismal phenotypes (15, 46, 47). Phenotypic effects were monitored daily with a stereo microscope.
An in vivo study allows the investigation of the entire organism's response to carcinogenic compounds and, as such, makes it possible to link carcinogen-induced stem cell proliferation with the organism's phenotype. Conditions were subdivided according to their phenotypic effects into concentrations that caused no observable phenotypic effects (category 1), phenotypic effects (category 2, described in phenotypic effect screening) and concentrations that induced organismal death (category 3). Phenotypic parameters that were monitored daily were tissue regression, lesion, blisters, bloating, pigmentation, behavior, regenerative success, body size, tissue outgrowth, flattened posture and organismal death (35). Stem cell proliferation was quantified at the appearance of systemic effects (category 2 concentrations).

Where [1] appears, read: category 2 concentrations, three days (MMS), one week (4NQO), two weeks (S-PB, CPZ, MPH).
Where [2] appears, read: asexual strain, Schmidtea mediterranea, in vivo.
Where [3] appears, read: asexual strain, Schmidtea mediterranea, in vivo, 2 weeks.
Where [4] appears, read: 100 μM, Experiment 2, two weeks exposure.
Where [5] appears, read: 100 μM, Experiment 3, two weeks exposure.
[6] abbreviates: Experiment 2, all concentrations, two weeks exposure.
[7] abbreviates: Experiment 3, all concentrations, two weeks exposure.
Setting [8] is: 0.3125 μM, Experiment 1, two weeks exposure.
Where [9] appears, read: 0.3125 μM, Experiment 3, two weeks exposure.
The mark [10] stands for this setting: 0.625 μM, Experiment 1, two weeks exposure.
Setting [11] is: 0.625 μM, Experiment 2, two weeks exposure.
Where [12] appears, read: 0.625 μM, Experiment 3, two weeks exposure.

With `O=[N+]([O-])c1cc[n+]([O-])c2ccccc12` [4-Nitroquinoline-1-oxide], the “proportion of worms having 30 or more mitotic stem cells” value (“proportion” for short) with Macrostomum lignano (0.125 μM, Experiment 2, two weeks exposure) turned out to be 16.7%. The “proportion” value in the data set with Macrostomum lignano (0.5 μM, Experiment 1, two weeks exposure) is given as 77.8%. For the same compound, in the data set on Macrostomum lignano (0.5 μM, Experiment 2, two weeks exposure), the “proportion” value is on record as 0%. The “proportion” value in the data set on Macrostomum lignano (0.5 μM, Experiment 3, two weeks exposure) was determined as 36.4%. In addition, in the data set on Schmidtea mediterranea (4NQO, exposure one week), the “Cat. 1 concentrations: No effects on phenotype” value lay in the range of 0.1 to 0.5 µM, the “Cat. 2 concentrations: Phenotypic effects” value (“Cat. 2 concentrations” below) was 2 µM and the “Cat. 3 concentrations: Mortality” value came out at 5 µM. Besides, in the data set with Schmidtea mediterranea (setting [1]), the “Number of animals with Behavior effects” value is listed as 3/4, the “Number of animals with Pigmentation” value is listed as 2/4, the “Number of animals with Regenerative success effects” value is reported as 4/4 and the “Number of animals with Tissue regression” value is listed as 2/4.
As to `CN(C)CCCN1c2ccccc2Sc2ccc(Cl)cc21` [CPZ, chlorpromazine hydrochloride], in the data set on Schmidtea mediterranea (setting [2]), the “Number of animals with Behavior effects” value was 4/4, the “Number of animals with Body size effects” value is 2/2 and the “concentrations that trigger phenotypic effects” value came to 1 µM. Also, in the data set on Schmidtea mediterranea (setting [3]), the “Cat. 1 concentrations: No effects on phenotype” value was in the range of 0.25 to 0.5 µM, the “Cat. 2 concentrations” value lay within 0.75 to 1 µM and the “Cat. 3 concentrations: Mortality” value came to 2 µM.
Consider `O=P1(N(CCCl)CCCl)NCCCO1` (stereo not shown) [Cyclophosphamide monohydrate], for which the “proportion” value in the data set with Macrostomum lignano (50 μM, Experiment 1, two weeks exposure) is on record as 0%; with Macrostomum lignano (50 μM, Experiment 2, two weeks exposure) it was 0%; in the data set with Macrostomum lignano (50 μM, Experiment 3, two weeks exposure) it was 16.7%; in the data set with Macrostomum lignano (100 μM, Experiment 1 (only three worms quantified, experiment excluded), two weeks exposure), 66.7%; in the data set on Macrostomum lignano (setting [4]) it was 20%; in the data set with Macrostomum lignano (setting [5]), 33.3%. Further, the Pred entry in the data set with Macrostomum lignano (setting [4]) and in the data set on Macrostomum lignano (setting [5]) was “+ (+ in case 20% or more worms having 30 or more mitotic stem cells)” each time. The “Prediction of the experiment” value in the data set on Macrostomum lignano (setting [6]) and in the data set on Macrostomum lignano (setting [7]) was “Pos” each time. In addition, the Overall prediction result in the data set on Macrostomum lignano is “Pos”. In addition, the concentrations predicted positive with Macrostomum lignano (two weeks exposure) was 100 µM. Moreover, the “prediction by the assay in the experiments” value (“prediction by the assay” below) with Macrostomum lignano (two weeks exposure) is “predicted positive in all experiments”.
Take `CC/C(=C(/CC)c1ccc(O)cc1)c1ccc(O)cc1` [Diethylbestrol, Diethylstilbestrol]: the Pred result in the data set with Macrostomum lignano (setting [8]), in the data set on Macrostomum lignano (setting [9]), in the data set with Macrostomum lignano (setting [10]), with Macrostomum lignano (setting [11]) and in the data set with Macrostomum lignano (setting [12]) was “+ (+ in case 20% or more worms having 30 or more mitotic stem cells)” throughout. The “proportion” value with Macrostomum lignano (setting [8]) is 100%; in the data set on Macrostomum lignano (0.3125 μM, Experiment 2, two weeks exposure), 12.5%; in the data set with Macrostomum lignano (setting [9]), 33.3%; with Macrostomum lignano (setting [10]) it was 27.3%; in the data set on Macrostomum lignano (setting [11]), 50%; with Macrostomum lignano (setting [12]), 22.2%. For the same compound, the “Prediction of the experiment” value in the data set with Macrostomum lignano (Experiment 1, all concentrations, two weeks exposure) was “Pos”; in the data set on Macrostomum lignano (setting [6]), “Pos”; with Macrostomum lignano (setting [7]) it was “Pos”. Besides, the Overall prediction entry with Macrostomum lignano is given as “Pos”. Further, in the data set on Macrostomum lignano (two weeks exposure), the “prediction by the assay” value is “predicted positive for all three experiments”.
Turning to `COS(C)(=O)=O` [MMS, methyl methane sulphonate], in the data set on Schmidtea mediterranea (MMS, exposure three days), the “Cat. 2 concentrations” value lay within 400 to 500 µM and the “Cat. 3 concentrations: Mortality” value is 1000 µM. For the same compound, in the data set with Schmidtea mediterranea (setting [1]), the “Number of animals with Behavior effects” value was 14/14, the “Number of animals with Body size effects” value is on record as 10/14, the “Number of animals with Pigmentation” value was 1/14 and the “Number of animals with Regenerative success effects” value is listed as 14/14. Besides, the “Number of animals with Tissue regression” value with Schmidtea mediterranea (setting [1]) is 3/14.
Regarding `CN(C)CCN(Cc1cccs1)c1ccccn1` [MPH, methapyrilene hydrochloride], in the data set on Schmidtea mediterranea (setting [2]), the “Number of animals with Behavior effects” value is given as 8/8 and the “Number of animals with Body size effects” value is 8/8.
Consider `CCC1(c2ccccc2)C(=O)NC(=O)NC1=O` [S-PB, sodium phenobarbital], for which, in the data set on Schmidtea mediterranea (S-PB, exposure two weeks), the “Cat. 1 concentrations: No effects on phenotype” value is 1000 µM, the “Cat. 2 concentrations” value is 2000 µM and the “Cat. 3 concentrations: Mortality” value stood at 4000 µM. Moreover, in the data set with Schmidtea mediterranea (setting [1]), the “Number of animals with Behavior effects” value is listed as 2/2.
`Cc1noc(NS(=O)(=O)c2ccc(N)cc2)c1C` [Sulfisoxazole]: the “proportion” value is on record as 0% with Macrostomum lignano ([…] μM, Experiment 1, two weeks exposure); 0% in the data set on Macrostomum lignano ([…] μM, Experiment 3, two weeks exposure); 0% in the data set with Macrostomum lignano (500 μM, Experiment 1, two weeks exposure); 11.1% in the data set with Macrostomum lignano (500 μM, Experiment 2, two weeks exposure); 0% in the data set with Macrostomum lignano (500 μM, Experiment 3, two weeks exposure); 0% with Macrostomum lignano (1000 μM, Experiment 1, two weeks exposure). Besides, the “proportion” value is on record as 0% in the data set on Macrostomum lignano (1000 μM, Experiment 2, two weeks exposure) and 0% in the data set on Macrostomum lignano (1000 μM, Experiment 3, two weeks exposure). Also, in the data set on Macrostomum lignano (all three experiments, two weeks exposure), the “concentration up to which predicted negative” value is “up to 1 mM”. Moreover, in the data set with Macrostomum lignano (concentrations higher than the highest analyzed (Sox >1 mM, CP >100 μM, 4NQO >0.5 μM)), the “lethality of the worms” value is given as “greater than 20%”. Further, in the data set on Macrostomum lignano (two weeks exposure), the “prediction by the assay” value was “predicted negative for all three experiments”.
